The assay deals with T1, JNK1 (Homo sapiens, UniProt P45983).
T1 construct: purchased Carna Biosciences
T1 sequence (P45983 whole entry): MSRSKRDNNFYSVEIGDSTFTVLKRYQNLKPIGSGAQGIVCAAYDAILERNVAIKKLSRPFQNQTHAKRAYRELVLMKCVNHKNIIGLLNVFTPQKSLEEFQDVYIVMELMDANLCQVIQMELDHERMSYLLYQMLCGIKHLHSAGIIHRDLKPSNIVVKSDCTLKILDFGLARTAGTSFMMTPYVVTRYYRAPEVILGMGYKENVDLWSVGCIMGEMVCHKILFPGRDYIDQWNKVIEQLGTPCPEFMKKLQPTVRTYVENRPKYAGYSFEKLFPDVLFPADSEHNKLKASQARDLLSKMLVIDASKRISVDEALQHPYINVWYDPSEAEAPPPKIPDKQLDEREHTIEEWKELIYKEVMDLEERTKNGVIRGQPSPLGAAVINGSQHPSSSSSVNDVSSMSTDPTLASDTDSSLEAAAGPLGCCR
The experiment in a line: JNK1 biochemical assays (one or more of: time resolved fluorescence, Z'-LYTE Cascade, radioactive). To be noted: tested in one or more of the JNK1 biochemical assays; read-out: Act. Level (JNK1 biochemical assay IC50 activity level).
Procedure: JNK1 Assay. A 384-well time resolved fluorescence assay was used to monitor JNK1 activity. The JNK1 assay was run in the following assay buffer: 50 mM HEPES, 10 mM MgCl2, 1 mM EGTA, 2 mM DTT, and 0.01% Tween 20. To initiate the reaction 100 nM of ULight™-labeled 4EBP1 peptide (Perkin-Elmer) and 5 μM of ATP were mixed with 500 pM of JNK1 (Carna Biosciences), for a total assay volume of 20 μL in each well. The assay was incubated at room temperature for 1 h and terminated using a mixture of 30 mM EDTA and 4 nM Eu-anti-4EBP1, by adding 20 μL of stop solution to each well. Plates were read on a Perkin-Elmer Envision Reader.
JNK1 Assay. The JNK1 Z′-LYTE® Cascade kinase assay was run in the following buffer: 50 mM HEPES at pH 7.5, 0.01% BRIJ-35, 10 mM MgCl2, 1 mM EGTA, and 1 mM DTT. […] The assay was incubated at room temperature for 1 h. […] The data was then read on a fluorescence plate reader and analyzed.
JNK1 assay. The radioactive JNK kinase assay was carried out in a 96-well plate format at a final volume of 100 μL. […] JNK1 was diluted in the following dilution buffer (20 mM HEPES pH 7.6, 0.1 mM EDTA, 2.5 mM MgCl2, 0.004% (w/v) Triton X100, 2 μg/ml Leupeptin, 20 mM B-glycerol phosphate, 0.1 mM Na3VO4 dithiothreitol) and then pre-mixed with cJun diluted in the substrate solution buffer (20 mM HEPES pH 7.6, 50 mM NaCl, 0.1 mM EDTA, 2.5 mM MgCl2, 0.05% (w/v) Triton X100). […] The enzyme, substrate and inhibitor mixture was allowed to equilibrate at room temperature for 15 minutes. The reaction was started by the addition of 10 μL of 10×ATP in kinase buffer (130 mM MgCl2, 6 mM dithiothreitol, 150 mM para-nitrophenyl phosphate, 100 μCi/ml γ-[^33P]-ATP). Reactions were allowed to proceed for 60 minutes before precipitation of protein via trichloroacetic acid (7.2% TCA final). […] The precipitate was washed with Phosphate Buffered Saline and the amount of phosphate incorporated into cJun was quantified by scintillation counting using a Packard Topcount-NXT. All assays were conducted under conditions where phosphate incorporation was linear with respect to time and enzyme concentration.
Turning to `NC(=O)c1cnc(NC2CCOCC2)nc1N[C@H]1CC[C@@H](C(=O)N2CCCC2)CC1` [Example A-112, 4-((1s,4s)-4-(pyrrolidine-1-carbonyl)cyclohexylamino)-2-(tetrahydro-2H-pyran-4-ylamino)pyrimidine-5-carboxamide], the IC50 (in general, the concentration needed to halve the response being measured) fell in the range of 0.8 to 1 µM.
Turning to `CCO[C@H]1CC[C@@H](Nc2nc(NC3CCN(C(=O)CC)CC3)ncc2C(N)=O)CC1` [Example A-113, 4-((1s,4s)-4-ethoxycyclohexylamino)-2-(1-propionylpiperidin-4-ylamino)pyrimidine-5-carboxamide], the concentration for half-maximal inhibition (IC50) is < 0.2 µM.
As for `CCC(=O)N1CCC(Nc2ncc(C(N)=O)c(NC3CCCC3)n2)CC1` [Example A-114, 4-(cyclopentylamino)-2-(1-propionylpiperidin-4-ylamino)pyrimidine-5-carboxamide], the IC50 is < 0.2 µM.
For the compound `CCO[C@H]1CC[C@@H](Nc2nc(NC3CCOCC3)ncc2C(N)=O)CC1` [Example A-115, 4-((1s,4s)-4-ethoxycyclohexylamino)-2-(tetrahydro-2H-pyran-4-ylamino)pyrimidine-5-carboxamide], the IC50 is < 0.2 µM.
As for `CN(C)C(=O)[C@H]1CC[C@@H](Nc2nc(NC3CCOCC3)ncc2C(N)=O)CC1` [Example A-116, 4-((1s,4s)-4-(dimethylcarbamoyl)cyclohexylamino)-2-(tetrahydro-2H-pyran-4-ylamino)pyrimidine-5-carboxamide], the IC50 is 0.2 to 0.8 µM.
`CCO[C@H]1CC[C@H](Nc2ncc(C(N)=O)c(N[C@H]3CCC[C@@H]3O)n2)CC1` [Example A-117, 2-((1r,4S)-4-ethoxycyclohexylamino)-4-((1S,2S)-2-hydroxycyclopentylamino)pyrimidine-5-carboxamide]: the IC50 was < 0.2 µM.
As to `CO[C@H]1CC[C@H](Nc2ncc(C(N)=O)c(N[C@H]3CC[C@@H](C(=O)N(C)C)CC3)n2)CC1` [Example A-118, 4-((1s,4s)-4-(dimethylcarbamoyl)cyclohexylamino)-2-((1r,4r)-4-methoxycyclohexylamino)pyrimidine-5-carboxamide], the IC50 was < 0.2 µM.
`CO[C@H]1CC[C@H](Nc2ncc(C(N)=O)c(N[C@H]3CC[C@@H](CO)CC3)n2)CC1` [Example A-119, 4-((1s,4s)-4-(hydroxymethyl)cyclohexylamino)-2-((1r,4r)-4-methoxycyclohexylamino)pyrimidine-5-carboxamide]: the IC50 is < 0.2 µM.
`CO[C@H]1CC[C@H](Nc2ncc(C(N)=O)c(N[C@H]3CC[C@@H](N)CC3)n2)CC1` [Example A-120, 4-((1s,4s)-4-aminocyclohexylamino)-2-((1r,4r)-4-methoxycyclohexylamino)pyrimidine-5-carboxamide]: the IC50 was < 0.2 µM.
On to `CO[C@H]1CC[C@H](Nc2ncc(C(N)=O)c(NC3CCC4(CC3)OCCO4)n2)CC1` [Example A-121, 4-(1,4-dioxaspiro[4.5]decan-8-ylamino)-2-((1r,4r)-4-methoxycyclohexylamino)pyrimidine-5-carboxamide], for which the IC50 is < 0.2 µM.
Take `C[C@H](Nc1ncc(C(N)=O)c(N[C@H]2CC[C@@H](CO)CC2)n1)C1CCCCC1` [Example A-122, 2-((S)-1-cyclohexylethylamino)-4-((1s,4R)-4-(hydroxymethyl)cyclohexylamino)pyrimidine-5-carboxamide]: the concentration for half-maximal inhibition (IC50) is < 0.2 µM.
Then `COC(=O)N1CCC(Nc2ncc(C(N)=O)c(NC3CCCCC3)n2)CC1` [Example A-123, methyl 4-(5-carbamoyl-4-(cyclohexylamino)pyrimidin-2-ylamino)piperidine-1-carboxylate], with < 0.2 µM.
`CCC(=O)N[C@H]1CC[C@@H](Nc2nc(N[C@@H](C)C3CCCCC3)ncc2C(N)=O)CC1` [Example A-124, 2-((S)-1-cyclohexylethylamino)-4-((1s,4R)-4-propionamidocyclohexylamino)pyrimidine-5-carboxamide]: the IC50 is < 0.2 µM.
Take `C[C@H](Nc1ncc(C(N)=O)c(N[C@H]2CC[C@@H](O)CC2)n1)C1CCCCC1` [Example A-125, 2-((S)-1-cyclohexylethylamino)-4-((1s,4R)-4-hydroxycyclohexylamino)pyrimidine-5-carboxamide]: the IC50 was < 0.2 µM.
On to `C[C@H](Nc1ncc(C(N)=O)c(N[C@H]2CC[C@@H](N)CC2)n1)C1CCCCC1` [Example A-126, 4-((1s,4R)-4-aminocyclohexylamino)-2-((S)-1-cyclohexylethylamino)pyrimidine-5-carboxamide], for which the concentration for half-maximal inhibition (IC50) was < 0.2 µM.
With `CC(=O)N1CCC(Nc2nc(N[C@@H](C)C3CCCCC3)ncc2C(N)=O)CC1` [Example A-127, (S)-4-(1-acetylpiperidin-4-ylamino)-2-(1-cyclohexylethylamino)pyrimidine-5-carboxamide], the IC50 was < 0.2 µM.
On to `NC(=O)c1cnc(NC2CCCC2)nc1N[C@H]1CC[C@@H](O)CC1` [Example A-128, 2-(cyclopentylamino)-4-((1s,4s)-4-hydroxycyclohexylamino)pyrimidine-5-carboxamide], for which the IC50 was < 0.2 µM.
As for `CCC(=O)N[C@H]1CC[C@@H](Nc2nc(NC3CCCC3)ncc2C(N)=O)CC1` [Example A-129, 2-(cyclopentylamino)-4-((1s,4s)-4-propionamidocyclohexylamino)pyrimidine-5-carboxamide], the IC50 is 0.2 to 0.8 µM.
Consider `CNC(=O)[C@H]1CC[C@@H](Nc2nc(NC3CCCC3)ncc2C(N)=O)CC1` [Example A-130, 2-(cyclopentylamino)-4-((1s,4s)-4-(methylcarbamoyl)cyclohexylamino)pyrimidine-5-carboxamide], for which the 50% inhibitory concentration (IC50) was 1 to 10 µM.
Then `NC[C@H]1CC[C@@H](Nc2nc(NC3CCCC3)ncc2C(N)=O)CC1` [Example A-131, 4-((1s,4s)-4-(aminomethyl)cyclohexylamino)-2-(cyclopentylamino)pyrimidine-5-carboxamide], with < 0.2 µM; and `NC(=O)c1cnc(NC2CCC2)nc1N[C@H]1CC[C@@H](C(=O)NC2CC2)CC1` [Example A-132, 2-(cyclobutylamino)-4-((1s,4s)-4-(cyclopropylcarbamoyl)cyclohexylamino)pyrimidine-5-carboxamide], with 1 to 10 µM; and `NC(=O)c1cnc(NC2CCC2)nc1N[C@H]1CC[C@@H](C(=O)N2CCCCC2)CC1` [Example A-133, 2-(cyclobutylamino)-4-((1s,4s)-4-(piperidine-1-carbonyl)cyclohexylamino)pyrimidine-5-carboxamide], with 0.8 to 1 µM.
`CN(C)C(=O)[C@H]1CC[C@@H](Nc2nc(NC3CCC3)ncc2C(N)=O)CC1` [Example A-134, 2-(cyclobutylamino)-4-((1s,4s)-4-(dimethylcarbamoyl)cyclohexylamino)pyrimidine-5-carboxamide]: the IC50 was in the range of 1 to 10 µM.
`CCO[C@H]1CC[C@@H](Nc2nc(NC3CCC3)ncc2C(N)=O)CC1` [Example A-135, 2-(cyclobutylamino)-4-((1s,4s)-4-ethoxycyclohexylamino)pyrimidine-5-carboxamide]: the IC50 fell in the range of 0.2 to 0.8 µM.
For the compound `NC(=O)c1cnc(NC2CC2)nc1N[C@H]1CC[C@@H](CO)CC1` [Example A-136, 2-(cyclopropylamino)-4-((1s,4s)-4-(hydroxymethyl)cyclohexylamino)pyrimidine-5-carboxamide], the IC50 fell in the range of 0.2 to 0.8 µM.
Consider `CCNC(=O)[C@H]1CC[C@@H](Nc2nc(NC3CC3)ncc2C(N)=O)CC1` [Example A-137, 2-(cyclopropylamino)-4-((1s,4s)-4-(ethylcarbamoyl)cyclohexylamino)pyrimidine-5-carboxamide], for which the IC50 is 1 to 10 µM.
`CC(C)CC(=O)N[C@H]1CC[C@@H](Nc2nc(NC3CC3)ncc2C(N)=O)CC1` [Example A-138, 2-(cyclopropylamino)-4-((1s,4s)-4-(3-methylbutanamido)cyclohexylamino)pyrimidine-5-carboxamide]: the concentration for half-maximal inhibition (IC50) fell in the range of 0.8 to 1 µM.
As for `CC(C)Nc1ncc(C(N)=O)c(N[C@H]2CC[C@@H](CO)CC2)n1` [Example A-139, 4-((1s,4s)-4-(hydroxymethyl)cyclohexylamino)-2-(isopropylamino)pyrimidine-5-carboxamide], the IC50 lay within 0.2 to 0.8 µM.
For the compound `CC(C)Nc1ncc(C(N)=O)c(N[C@H]2CC[C@@H](C(C)(C)O)CC2)n1` [Example A-140, 4-((1s,4s)-4-(2-hydroxypropan-2-yl)cyclohexylamino)-2-(isopropylamino)pyrimidine-5-carboxamide], the IC50 was in the range of 0.2 to 0.8 µM.
Consider `CCNC(=O)[C@H]1CC[C@@H](Nc2nc(NC(C)C)ncc2C(N)=O)CC1` [Example A-141, 4-((1s,4s)-4-(ethylcarbamoyl)cyclohexylamino)-2-(isopropylamino)pyrimidine-5-carboxamide], for which the IC50 was 1 to 10 µM.
On to `CC(C)Nc1ncc(C(N)=O)c(N[C@H]2CC[C@@H](NC(=O)C(C)C)CC2)n1` [Example A-142, 4-((1s,4s)-4-isobutyramidocyclohexylamino)-2-(isopropylamino)pyrimidine-5-carboxamide], for which the half-inhibitory concentration (IC50) lay in the range of 0.2 to 0.8 µM.
In the case of `CC(C)Nc1ncc(C(N)=O)c(N[C@H]2CC[C@@H](C(=O)N3CCCC3)CC2)n1` [Example A-143, 2-(isopropylamino)-4-((1s,4s)-4-(pyrrolidine-1-carbonyl)cyclohexylamino)pyrimidine-5-carboxamide], the IC50 lay within 0.8 to 1 µM.
Turning to `NC(=O)c1cnc(N[C@H]2CC[C@H](O)CC2)nc1NC1CCCCC1` [Example A-144, 4-(cyclohexylamino)-2-((1r,4r)-4-hydroxycyclohexylamino)pyrimidine-5-carboxamide], the IC50 is < 0.2 µM.
On to `NC(=O)c1cnc(NC2CCCCC2)nc1N[C@H]1CC[C@@H](C(N)=O)CC1` [Example A-146, 4-((1s,4s)-4-carbamoylcyclohexylamino)-2-(cyclohexylamino)pyrimidine-5-carboxamide], for which the IC50 was < 0.2 µM.
With `NC(=O)c1cnc(NC2CCCCC2)nc1N[C@H]1CC[C@@H](O)CC1` [Example A-147, 2-(cyclohexylamino)-4-((1s,4s)-4-hydroxycyclohexylamino)pyrimidine-5-carboxamide], the IC50 was < 0.2 µM.
Consider `NC(=O)c1cnc(N[C@H]2CC[C@H](O)CC2)nc1NC1CCCC1` [Example A-148, 4-(cyclopentylamino)-2-((1r,4r)-4-hydroxycyclohexylamino)pyrimidine-5-carboxamide], for which the IC50 was < 0.2 µM.
